Where “and” joins values, the source holds several entries; their conditions need not be identical. Identical values can stand only once.
target: T1, h-11βHSD1 (Homo sapiens, UniProt P28845); assay: 11βHSD1 enzyme assay (SPA, 3H-cortisone to 3H-cortisol); type: biochemical; conditions: extract of yeast transformed with h-11βHSD1; 120 nM 3H-cortisone, 4 mM β-NADPH, 60 min at 30° C.; several determinations per cell separated by ';'
T1 construct: made in house
Description: ^3H-cortisone and anti-rabbit Ig coated scintillation proximity assay (SPA) beads were purchased from Amersham Pharmacia Biotech, β-NADPH was from Sigma and rabbit anti-cortisol antibodies were from Fitzgerald. An extract of yeast transformed with h-11βHSD1 (Hutt et al., FEBS Lett., 441, 25 (1998)) was used as the source of enzyme. The test compounds were dissolved in DMSO (10 mM). All dilutions were performed in a buffer containing 50 mM TRIS-HCl (Sigma Chemical Co), 4 mM EDTA (Sigma Chemical Co), 0.1% BSA (Sigma Chemical Co), 0.01% Tween-20 (Sigma Chemical Co) and 0.005% bacitracin (Novo Nordisk A/S), pH=7.4. Optiplate 96 wells plates were supplied by Packard. The amount of ^3H-cortisol bound to the SPA beads was measured on TopCount NXT, Packard.
h-11βHSD1, 120 nM ^3H-cortisone, 4 mM β-NADPH, antibody (1:200), serial dilutions of test compound and SPA particles (2 mg/well) were added to the wells. The reaction was initiated by mixing the different components and was allowed to proceed under shaking for 60 min at 30° C. The reaction was stopped be the addition of 10 fold excess of a stopping buffer containing 500 μM carbenoxolone and 1 μM cortisone. Data was analysed using GraphPad Prism software.

T1 sequence (P28845 whole entry): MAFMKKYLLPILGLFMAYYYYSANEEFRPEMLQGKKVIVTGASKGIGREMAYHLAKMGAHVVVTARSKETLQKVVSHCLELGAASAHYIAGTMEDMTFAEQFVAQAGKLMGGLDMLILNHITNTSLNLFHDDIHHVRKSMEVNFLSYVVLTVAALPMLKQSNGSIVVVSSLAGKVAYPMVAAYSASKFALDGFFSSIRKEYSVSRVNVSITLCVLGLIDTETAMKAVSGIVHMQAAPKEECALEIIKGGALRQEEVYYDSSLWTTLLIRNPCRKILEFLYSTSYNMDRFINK

Compound | IC50
N#Cc1ccc(Oc2ccc(C(=O)NC3C4CC5CC3CC(O)(C5)C4)cc2)nc1 (centres unmarked) [Compound 2, 4-(5-Cyano-pyridin-2-yloxy)-N-(5-hydroxy-adamantan-2-yl)-benzamide] | 259 nM and 305 nM
O=C(NC1C2CC3CC1CC(O)(C3)C2)c1ccc(Oc2ccc(Cl)cn2)cc1 (centres unmarked) [Compound 3, 4-(5-Chloro-pyridin-2-yloxy)-N-(5-hydroxy-adamantan-2-yl)-benzamide] | 56 nM and 89 nM

Next, values leading:

IC50 | Compound
73 nM and 81 nM | O=C(NC1C2CC3CC1CC(O)(C3)C2)c1ccc(Oc2ccc(Cl)cc2Cl)cc1 (centres unmarked) [Compound 1, 4-(2,4-Dichloro-phenoxy)-N-(5-hydroxy-adamantan-2-yl)-benzamide]
51 nM (2×) and 56 nM | O=C(NC1C2CC3CC1CC(CO)(C3)C2)c1ccc(Oc2ccc(Cl)cn2)cc1 (centres unmarked) [Compound 4, 4-(5-Chloro-pyridin-2-yloxy)-N-(5-hydroxymethyl-adamantan-2-yl)-benzamide]
17 nM and 27 nM | CN(C(=O)c1ccc(Oc2ccc(Cl)cn2)cc1)C1CCC(CO)CC1 (centres unmarked) [Compound 5, 4-(5-Chloro-pyridin-2-yloxy)-N-(4-hydroxymethyl-cyclohexyl)-N-methyl-benzamide]
